Reference: the supplement of paper PMC11451515

System: SEM cells
Experiment: cell viability relative to DMSO control; higher = less cytotoxic
Details: 48 h
Outline: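 Viability is expressed as a percentage of DMSO wells within each plate, and cell-free wells serve as background. Seeding densities in the 1536-well plates (5 μl) were 500 cells/well for NOMO1 or SEM leukemia cells and 1000 cells/well for P12-Ichikawa. Each line was adapted for at least four passages in each medium. Library compounds in DMSO were pin-dosed at 47 μM to 0.79 nM (11 points, threefold), and CellTiter-Glo One luminescence was read after 48 h at 37°C.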

[1] = HPLM + 10% dialyzed FBS, 0.000781 µM
[2] = HPLM + 10% dialyzed FBS, 0.00234 µM
[3] = HPLM + 10% dialyzed FBS, 0.00702 µM
[4] = HPLM + 10% dialyzed FBS, 0.0211 µM
[5] = HPLM + 10% dialyzed FBS, 0.0632 µM
[6] = HPLM + 10% dialyzed FBS, 0.19 µM
[7] = HPLM + 10% dialyzed FBS, 0.569 µM
[8] = HPLM + 10% dialyzed FBS, 1.71 µM
[9] = HPLM + 10% dialyzed FBS, 5.12 µM
[10] = HPLM + 10% dialyzed FBS, 15.4 µM
[11] = HPLM + 10% dialyzed FBS, 46.1 µM
[12] = RPMI 5 mM glucose + 10% FBS, 0.000781 µM
[13] = RPMI 5 mM glucose + 10% FBS, 0.00234 µM
[14] = RPMI 5 mM glucose + 10% FBS, 0.00702 µM
[15] = RPMI 5 mM glucose + 10% FBS, 0.0211 µM
[16] = RPMI 5 mM glucose + 10% FBS, 0.0632 µM
[17] = RPMI 5 mM glucose + 10% FBS, 0.19 µM
[18] = RPMI 5 mM glucose + 10% FBS, 0.569 µM
[19] = RPMI 5 mM glucose + 10% FBS, 1.71 µM
[20] = RPMI 5 mM glucose + 10% FBS, 5.12 µM
[21] = RPMI 5 mM glucose + 10% FBS, 15.4 µM
[22] = RPMI 5 mM glucose + 10% FBS, 46.1 µM
[23] = RPMI 5 mM glucose + 10% dialyzed FBS, 0.000781 µM
[24] = RPMI 5 mM glucose + 10% dialyzed FBS, 0.00234 µM
[25] = RPMI 5 mM glucose + 10% dialyzed FBS, 0.00702 µM
[26] = RPMI 5 mM glucose + 10% dialyzed FBS, 0.0211 µM
[27] = RPMI 5 mM glucose + 10% dialyzed FBS, 0.0632 µM
[28] = RPMI 5 mM glucose + 10% dialyzed FBS, 0.19 µM
[29] = RPMI 5 mM glucose + 10% dialyzed FBS, 0.569 µM
[30] = RPMI 5 mM glucose + 10% dialyzed FBS, 1.71 µM
[31] = RPMI 5 mM glucose + 10% dialyzed FBS, 5.12 µM
[32] = RPMI 5 mM glucose + 10% dialyzed FBS, 15.4 µM
[33] = RPMI 5 mM glucose + 10% dialyzed FBS, 46.1 µM

Row | SMILES | cell viability [1] [%] | cell viability [2] [%] | cell viability [3] [%] | cell viability [4] [%] | cell viability [5] [%] | cell viability [6] [%] | cell viability [7] [%] | cell viability [8] [%] | cell viability [9] [%] | cell viability [10] [%] | cell viability [11] [%] | cell viability [12] [%] | cell viability [13] [%] | cell viability [14] [%] | cell viability [15] [%] | cell viability [16] [%] | cell viability [17] [%] | cell viability [18] [%] | cell viability [19] [%] | cell viability [20] [%] | cell viability [21] [%] | cell viability [22] [%] | cell viability [23] [%] | cell viability [24] [%] | cell viability [25] [%] | cell viability [26] [%] | cell viability [27] [%] | cell viability [28] [%] | cell viability [29] [%] | cell viability [30] [%] | cell viability [31] [%] | cell viability [32] [%] | cell viability [33] [%]
1 | Cc1c(C(=O)NN2CCCCC2)nn(-c2ccc(Cl)cc2Cl)c1-c1ccc(Cl)cc1 | 103 | 125 | 113 | 114 | 128 | 129 | 122 | 124 | 131 | 127 | 93 | 103 | 112 | 118 | 118 | 118 | 127 | 127 | 135 | 130 | 129 | 99.5 | 107 | 120 | 137 | 116 | 128 | 149 | 139 | 144 | 119 | 133 | 104
2 | CC(C)C(=O)Oc1ccc(CO)cc1[C@H](CCN(C(C)C)C(C)C)c1ccccc1 | 34.1 | 81.6 | 97.9 | 80.4 | 74.6 | 83.3 | 82.8 | 81 | 82.3 | 76.2 | 72.4 | 32.5 | 92.1 | 91.8 | 99.3 | 74.4 | 92.5 | 81.7 | 67.5 | 101 | 80.3 | 89.5 | 35.5 | 91.9 | 92.2 | 95.3 | 74.9 | 89.4 | 97.8 | 85.7 | 114 | 96.2 | 99.8
3 | COc1ncc(-c2ccc3nccc(-c4ccnnc4)c3c2)cc1N[S+](=O)([O-])c1ccc(F)cc1F | 81 | 71.8 | 60.5 | 66.9 | 59.4 | 50.4 | 43.9 | 30 | 21.1 | 6.8 | 6.02 | 79 | 65 | 74.8 | 61.7 | 51.9 | 46.7 | 37 | 19.2 | 14.2 | 6.8 | 5.84 | 98.1 | 79.9 | 67.8 | 68.7 | 64.6 | 54.4 | 51.9 | 26.5 | 16.7 | 6.57 | 5.89
4 | COC1=C2OC(=O)\C=C/C2=CC3=C1OC=C3 | 121 | 117 | 129 | 126 | 124 | 123 | 121 | 115 | 116 | 107 | 93.4 | – | – | – | – | – | – | – | – | – | – | – | 123 | 132 | 124 | 110 | 123 | 133 | 128 | 109 | 115 | 108 | 93.7
5 | CC(C)(C)c1[nH]cnc1/C=c1\[nH]c(=O)/c(=C/c2ccccc2)[nH]c1=O | 102 | 69 | 20 | 23.9 | 24.3 | 25.5 | 24.3 | 7.62 | 4.47 | 4.16 | 3.59 | 117 | 85.4 | 16.6 | 14 | 16.1 | 17.9 | 12.1 | 4.12 | 3.51 | 2.93 | 2.89 | 106 | 80 | 17.5 | 21.2 | 23.4 | 21.4 | 19.5 | 4.68 | 3.49 | 3.56 | 3.02
6 | FC1=CC=C(SC/2=N/N3\C=N/C(=O)/C(=C3/C=C2)C4=C(Cl)C=CC=C4Cl)C(=C1)F | 79 | 85.9 | 89.7 | 91.1 | 92 | 88.1 | 98.5 | 89.7 | 88.1 | 76.7 | 44.9 | 97.5 | 104 | 106 | 101 | 108 | 101 | 102 | 112 | 93.8 | 62.9 | 20.1 | 91.7 | 78.6 | 95.7 | 93.4 | 103 | 87.5 | 83.3 | 79.3 | 77.2 | 73.4 | 33.6
7 | Cc1cnc(NC(=O)Nc2cc(Br)c(C)cc2OC[C@@H]2CNCCO2)cn1 | 95 | 112 | 110 | 115 | 117 | 107 | 65.8 | 31.8 | 22.6 | 24.4 | 22.5 | 103 | 114 | 78.6 | 105 | 109 | 110 | 91 | 33 | 27.5 | 33.8 | 17.5 | 108 | 101 | 95.2 | 106 | 100 | 98.1 | 66.8 | 21.9 | 19.7 | 21.8 | 17.2
8 | FC(F)c1nc2ccccc2n1-c1nc(N2CCOCC2)nc(N2CCOCC2)n1 | 85.1 | 79 | 83.6 | 85.9 | 73.8 | 62.8 | 61.3 | 66.6 | 49.7 | 60 | 38.7 | 87.6 | 80.7 | 93.5 | 84.4 | 75.3 | 70.5 | 75.6 | 63.1 | 66 | 62.4 | 45.8 | 84.2 | 78.9 | 71.9 | 87.5 | 72.2 | 68.7 | 60.6 | 63.1 | 66 | 54.3 | 37.1
